Assay results: patent publication US8822541B2, “Use of targeted nitroxide agents in mitigating or treating radiation injury” (University of Pittsburgh—Of the Commonwealth System of …, priority 2008, dated 2014)
Values joined by “and” are separate entries in the source; they are usually repeats but may differ in a detail not shown here. Identical values can stand only once. “Also recorded” adds a separate entry of the source.

Columns and labels:
[1] = tested on: MEF cells from Ercc1−/− mouse embryos; assay: Toxicity of JP4-039 in Ercc1−/− MEF cultures; type: cell-based; conditions: up to 10 μM
Experimental: To assess the therapeutic potential of JP4-039, tests for safety and protective activity were performed. FIGS. 35 and 36 show the results of tests to evaluate whether varying concentrations of JP4-039 produce toxic effects after 48 hours in cultures of MEF cells prepared from Ercc1^−/− or wild-type mouse embryos, respectively.

32D cl 3 cells = assay: EPR-based analysis of nitroxide distribution and partitioning in subcellular fractions; type: cell-based, mouse; conditions: 10 μM, 1 h
Experimental: To determine nitroxide partitioning and distribution in subcellular compartments, electron paramagnetic resonance (EPR) was utilized. 32D cl 3 cells were incubated for 24 h under pelleted or flask growth conditions. After incubation, 150×10^6 cells were resuspended at a concentration of 10×10^6 cells/mL and were treated with 10 μM JP4-039 or 10 μM TEMPO for 1 h (Wipf P, et al., Mitochondrial targeting of selective electron scavengers: synthesis and biological analysis of hemigramicidin-TEMPO conjugates. J Am Chem. Soc. 127: 12460-12461, 2005).
Subcellular compartments were isolated by differential centrifugation. Cells were centrifuged at 1500 RPM for 10 min and the supernatant (media) was removed. The remaining whole cell pellet was washed with cold PBS, resuspended in 0.3 mL of hypotonic buffer solution, and incubated on ice for 45 min. Cells were then lysed by three rapid freeze-thaw cycles in liquid nitrogen for 30 sec and water at 25° C. for 3 min. Lysed cells were centrifuged at 3000×g for 5 min to isolate nucleus and cellular debris. Supernatant was centrifuged at 12000×g for 45 min to isolate mitochondria from cytoplasm (Wipf P, et al., Mitochondrial targeting of selective electron scavengers: synthesis and biological analysis of hemigramicidin-TEMPO conjugates. J Am Chem. Soc. 127: 12460-12461, 2005).
Each cellular fraction (media, whole cell pellet, nucleus/cellular debris, mitochondria, and cytoplasm) was mixed with DMSO (1:1 vol/vol) and 2 mM of potassium ferricyanide (K3Fe(CN)6) to convert […] to EPR-detectable radical forms (Behringer W, et al., Antioxidant Tempol enhances hypothermic cerebral preservation during prolonged cardiac arrest in dogs. J Cereb Blood Flow Metab. 22: 105-117, 2002). 70 μL of the homogenate was loaded into Teflon tubing (0.8 mm internal diameter) (Alpha Wire Corp., Elizabeth, N.J.) which was folded in half and placed into an open ESR quartz tube (inner diameter of 3.0 mm). EPR measurements were made in triplicate using a JEOL-RE1X EPR spectrometer (Jeol, Tokyo, Japan) under the following conditions: 334.7 mT center field, 5 mT sweep width, 0.079 mT field modulation, 20 mW microwave power, 0.1 sec time constant, and 2 min scan time at 22.5° C. Utilizing signal magnitude and isolated volumes, amount and concentration of JP4-039 or TEMPO were calculated for each sample.

[2] = tested on: 32D cl 3 mouse hematopoietic progenitor cell line; assay: Irradiation survival curves of 32D cl 3 cells with JP4-039 (Example 10); type: cell-based; conditions: 10 μM, control 1.29
Experimental: Irradiation survival curves were performed on cells from the 32D cl 3 mouse hematopoietic progenitor cell line, incubated in 10 μM JP4-039 for 1 hour before irradiation, or plated in methycellulose containing 10 μM JP4-030 after irradiation. Cells were irradiated from 0 to 8 Gy, plated in 0.8% methycellulose containing media, and incubated for 7 days at 37° C. Colonies of greater than 50 cells were counted and data analyzed by linear quadratic and single-hit, multi-target models.

[3] = tested on: KM101 human marrow stromal cells; assay: Irradiation survival of KM101 marrow stromal cells; type: cell-based; conditions: 10 μM; for n (shoulder): control 1.1
Experimental: KM101 cells were incubated in media alone or in JP4-039 (10 μM) for one hour before irradiation or 24 hours after irradiation. The cells were irradiated to doses ranging from 0 to 6 Gy and plated in 4 well plates. Seven days later the cells were stained with crystal violet and colonies of greater than 50 cells counted. Cells incubated in JP4-039 either before or after irradiation were more radioresistant as shown by an increased shoulder of n=2.3±0.2 or 2.2±0.2, respectively compared to n of 1.1±0.1 for the KM101 cells (p=0.0309 or 0.0386, respectively).

mouse embryonic cells = assay: EPR-based analysis of integration and reduction of nitroxide Gramicidin S-peptidyl conjugates in MECs; type: cell-based; conditions: following incubation with solutions of the compounds
Experimental: Electron paramagnetic resonance (“EPR”) spectroscopy was used to monitor the cellular delivery of compounds 5a and 5b shown in FIG. 3 in mouse embryonic cells (“MEC”).
The following conditions were used during the EPR-based analysis of the integration and reduction of nitroxide Gramicidin S-peptidyl conjugates in MECs. The MECs at a concentration of 10 million MECs per mL were incubated with 10 μM of 4-AT and compound 5a, respectively. Recovered nitroxide radicals in whole cells, mitochondria, and cytosol fractions were resuspended in phosphate buffer saline (“PBS”) in the presence and absence, respectively, of 2 μM K3Fe(CN)6.

caspases 3 and 7 = assay: Caspases 3 and 7 activity in gut mucosa after hemorrhagic shock; type: in vivo, rat; conditions: 10 μM intraluminal, vs vehicle
Experimental: Caspases 3 and 7 activity assay. Caspases 3 and 7 activity was measured using a commercially available assay kit, Caspase GIo™ 3/7 assay kit (Promega, Madison, Wis.). Briefly, 50 μl of rat gut mucosa homogenate (20 jug protein) was mixed with 50 μl of Caspase-Glo™ reagent and incubated at room temperature for 1 hour. At the end of incubation period, the luminescence of each sample was measured using a plate reading chemiluminometer (ML1000, Dynatech Laboratories, Horsham, Pa.). Activity of caspases 3 and 7 was expressed as luminescence intensity (arbitrary units per mg protein). Protein concentrations were determined using the BioRad assay (Bio-Rad Laboratories, Inc., Hercules, Calif.).
In the subsequent series of in vivo studies, the affect of intraluminal XJB-5-131 on hemorrhage-induced peroxidation of phospholipids in intestinal mucosa was examined. […] In a preferred embodiment, 0.3 mL of test solution filled the lumen of each ileal compartment.
After two hours of HS, samples of ileal mucosa from the gut sacs filled with the vehicle and XJB-5-131 were obtained and compared with ileal mucosa of normal MECs. All samples were assayed with caspase 3 or caspase 7 activity as well as the peroxidation of phosphatidylcholine (“PC”), phosphatidylethanolamine (“PE”), phosphatidylserine (“PS”), and cardiolipin (“CL”), summarized in FIG. 7.

Compound | cellular proliferation relative to untreated control cells ([1]; Ercc1−/− or wild-type MEF) | toxicity ([1]; 48 hours) | cellular EPR signal detected in mitochondria (32D cl 3 cells; exponential growth) [%] | cellular EPR signal in nucleus and/or cellular debris (32D cl 3 cells; exponential growth) [%] | cellular EPR signal in the cytoplasm (32D cl 3 cells; exponential growth) [%] | concentration in the nucleus and cellular debris (32D cl 3 cells; exponential growth) [µM] | concentration in the whole cell pellet (32D cl 3 cells; exponential growth) [µM] | mitochondrial concentration (32D cl 3 cells; exponential growth) [µM] | cellular EPR signal in nucleus and/or cellular debris (32D cl 3 cells; pelleted cells) [%] | cellular EPR signal in the cytoplasm (32D cl 3 cells; pelleted cells) [%] | cellular EPR signal localized to the mitochondria (32D cl 3 cells; pelleted cells) [%] | mitochondrial concentration (32D cl 3 cells; pelleted cells) | ñ (shoulder on the survival curve) ([2]; drug added after irradiation) | ñ (shoulder on the survival curve) ([2]; drug added before irradiation) | n (shoulder) ([3]; 24 hours after irradiation) | Do ([3]; before or after irradiation) | n (shoulder) ([3]; one hour before irradiation) | concentration in the mitochondria of cultured mouse embryonic cells (mouse embryonic cells) | caspase 3 and 7 activity after hemorrhagic shock (caspases 3 and 7)
CC(C)C[C@@H](/C=C/CC(=O)NC1CC(C)(C)N([O])C(C)(C)C1)NC(=O)OC(C)(C)C [JP4-039, TEMPO-4-yl-(S,E)-5-(tert-butoxycarbonylamino)-7-methyloct-3-enamide] | enhanced | no signs of toxicity; also recorded: not toxic | 5.0±0.3 | 37.2±0.3 | 19.4±1.6 | 10.1 ± 0.1 | 12.6 ± 0.2 | 8.5 ± 0.5 | 33.2±3.8 | 29.5±0.7 | 3.9±0.2 | 10.90 ± 0.48 µM and 10.9 µM | 4.55±0.47 | 5.25±0.84 | 2.2±0.2 | no significant change | 2.3±0.2 |  | 
CC(C)C[C@@H](/C=C/[C@H](Cc1ccccc1)C(=O)N1CCC[C@H]1C(=O)N[C@H](C(=O)N[C@@H](CCCNC(=O)OCc1ccccc1)C(=O)NC1CC(C)(C)N([O])C(C)(C)C1)C(C)C)NC(=O)OC(C)(C)C [XJB-5-131] |  |  |  |  |  |  |  |  |  |  |  |  |  |  |  |  |  | concentrated in the mitochondria | significantly decreased
